pIC50: −log10 of the molar value.
Tests used:
[1] = biological target: T1, complement factor D (Homo sapiens, UniProt P00746); test: Complement factor D inhibitory activity (C3b method) in vitro screening; product Bb detected by ELISA; type: biochemical; details: factor D + factor B + factor C3b, 37° C., Bb by MicroVue Bb Plus ELISA
T1 construct: purchased Complement tech
Excerpt: 1. Complement Factor D Inhibitory Activity (C3b Method) In Vitro Screening Experiment
V-bottom plate (AXYGEN), DMSO (Sigma), MicroVue Bb Plus ELISA kit (Quidel), complement factor C3b (abbreviated as factor C3b, Complement tech), complement factor B (abbreviated as factor B, Complement tech), complement factor D (abbreviated as factor D, Complement tech), EDTA (MACKLIN), GVB^o (Complement tech), EGTA (Aladdin), MgCl2 (Aladdin), NaOH (Sinopharm), microplate reader (Molecular Devices, SpectraMax i3x), microplate thermostatic shaker (Thermo, MB100-2A), pipette (Gilson)
0.1 M Mg-EGTA: 3.8 g of EGTA, 0.9521 g of MgCl2, and 0.7 g of NaOH were weighed, and the pH was adjusted to 7.5 with NaOH. Distilled water was added to make up to 100 mL, and the mixture was filtered with a […] sterile needle filter, stored in portions at 4° C.
Buffer: 0.1 M Mg-EGTA solution was diluted 10-fold to 10 mM with GVB^o buffer; • factor B working solution: 1 mg/mL factor B solution (10.75 μM) was diluted 6.7-fold to 1.6 μM with buffer; • factor C3b working solution: 1 mg/mL factor C3b solution (5.68 μM) was diluted 5-fold to […] with buffer; • factor D working solution: 0.1 mg/mL factor D solution (4.17 μM) was diluted 1303-fold to 3.2 nM with buffer.
Note: a. The above dilution multiples are for reference only and are adjusted according to the true concentration labeled on the reagent; • b. factor B: 93 KDa, factor D: 24 KDa, factor C3b: 176 KDa.
Stop solution: An appropriate amount of EDTA powder was weighed, dissolved in a certain amount of GVB^o buffer, and the pH was adjusted to 7.5 with NaOH. The mixture was stirred until clear and prepared into a 10 mM solution.
Compound stock solution: 40 mM compound solution was diluted with DMSO into 1 mM stock solution, and the 1 mM stock solution was diluted 3-fold with DMSO at 8 points to prepare compound stock solutions of various concentrations.
Compound working solution: diluted 250-fold with buffer to obtain compound solutions of various concentrations.
In the V-bottom plate, the experimental group was added with 10 μL of factor D solution and 10 μL of compound solution; the positive control group was added with 10 μL of factor D solution and buffer containing 0.4% DMSO; the blank control group was added with […] containing 0.2% DMSO; incubated at 37° C. for 15 min; the factor B working solution and the factor C3b working solution were mixed homogeneously at a ratio of 1:1; 20 µL of the mixture was added to each well and incubated at 37° C. for 30 min; the reaction was stopped by adding 40 μL of stop solution; the production of product Bb was detected by MicroVue Bb Plus ELISA kit.
1.4.1 The required wells of the ELISA plate were taken out and allowed to return to room temperature, and the remaining ones were repackaged and stored at 4° C.;
1.4.2 the wells were washed twice with 300 μL of 1× wash buffer, and incubated for 1 min at 25° C. for the first wash;
1.4.3 samples were diluted 8-fold with complement specimen diluent, and 100 μL of sample was added to each well and incubated at 25° C. for 30 min;
1.4.4 the liquid in the wells was discarded, and the wells were washed 5 times with 300 μL of 1× wash buffer, and incubated at room temperature for 1 min for the first wash;
1.4.5 50 μL of Bb Plus Conjugate was added to each well and incubated at 25° C. for 30 min;
1.4.6 the liquid in the wells was discarded, and the wells were washed 5 times with 300 μL of 1× wash buffer, and incubated at room temperature for 1 min for the first wash;
1.4.7 100 μL of […] (Substrate Solution) was added to each well and incubated at 25° C. for 15 min;
1.4.8 100 μL of stop solution was added to each well, and the absorbance was detected at 450 nm within 30 min.
1.5.1 Inhibition rate of each drug concentration:
The PC group represents 0% inhibition rate, and the NC group represents 100% inhibition rate. […]

[2] = test system: hemolysis of rabbit erythrocytes; test: Rabbit erythrocyte hemolysis assay to evaluate inhibitory activity on the bypass pathway; type: cell-based; details: Oryctolagus cuniculus, 0.5 h, 48% NHP or 26.4% NHS, 37° C. 30 min, absorbance 415 nm
Excerpt: 2. Rabbit Erythrocyte Hemolysis Assay to Evaluate the Inhibitory Activity of Compounds on the Bypass Pathway
Normal Human Serum, NHS (collected from healthy people), Normal Human Plasma, NHP (Shanghai Yuduo), 96-well ELISA plate (Jet Biofil), Japanese big-eared white rabbit (Wuhan WQJX), Alsever's solution (Procell), centrifuge (Thermo, PICO17), thermostatic shaker (Shanghai Fuma), destaining shaker (Beijing Liuyi), cell counter (Invitrogen, Counter Countess II) (GVB^o, EGTA, MgCl2, NaOH, microplate reader, microplate thermostatic shaker, and pipette are equivalent to those in the experiment 1).
48% NHP: 100% NHP was diluted to 48% with buffer;
26.4% NPS: 100% NHS was diluted to 26.4% with buffer;
rabbit erythrocyte suspension: blood was taken from rabbit ear marginal vein, anticoagulated with Alsever's solution at a ratio of 1:1, stored in portions at 4° C., and could be stored for 4 weeks. Before use, the suspension was centrifuged at 500 g for 5 min to discard the Alsever's solution, washed three times with an equal volume of buffer and centrifuged at 500 g for 5 min, and finally the density was adjusted to 6×10^8 cells/mL with buffer.
In the 96-well ELISA plate, the experimental group was added with 50 μL of 48% NHP or 26.4% NHS and 50 μL of compound solution; the positive control group was added with 50 μL of 48% NHP or 26.4% NHS and 50 μL of buffer containing 0.2% DMSO; the blank control group was added with 50 μL of 48% inactivated NHP or 26.4% inactivated NHS and 0.2% DMSO buffer; the H2O group was added with 100 μL of double-distilled water; incubated at 37° C. for 15 min; 20 μL of rabbit erythrocyte suspension was added to each well and incubated on a shaker at 37° C. for 30 min; centrifuged at 2000 g (3380 rpm) for 5 min, and […] of supernatant was transferred to a new 96-well ELISA plate, and the absorbance was detected at 415 nm.
The PC group represents 100% hemolysis, and the NC group represents 0% hemolysis.
IC50: half-maximal inhibitory concentration. Data were collected to calculate the log value of hemolysis percentage versus compound concentration, and IC50 values were calculated using GraphPad Prism software.

T1 sequence (P00746 26-253): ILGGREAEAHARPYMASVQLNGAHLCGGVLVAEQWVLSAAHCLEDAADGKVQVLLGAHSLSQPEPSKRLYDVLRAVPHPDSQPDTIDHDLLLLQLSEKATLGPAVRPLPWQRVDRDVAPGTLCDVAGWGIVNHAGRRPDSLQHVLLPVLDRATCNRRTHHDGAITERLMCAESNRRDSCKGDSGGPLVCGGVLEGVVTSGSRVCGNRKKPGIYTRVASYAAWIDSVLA

SMILES	pIC50 [1]	pIC50 [2]
NCc1cccc(-c2cc(COc3cc(F)ccc3CC(=O)O)cc(N3CCC4(CC3)CC4)c2)c1F [Compound 021, 2-(2-((3′-(aminomethyl)-2′-fluoro-5-(6-azaspiro[2.5]octan-6-yl)-[1,1′-biphenyl]-3-yl)methoxy)-4-fluorophenyl)acetic acid]	7.96	7.19
NCc1cccc(-c2cc(COc3ccccc3CC(=O)O)cc(N3CCOC4(CC4)C3)c2)c1 [Compound 016, 2-(2-((3′-(aminomethyl)-5-(4-oxa-7-azaspiro[2.5]octan-7-yl)-[1,1′-biphenyl]-3-yl)methoxy)phenyl)acetic acid]	7.59	7.72
NCc1cccc(-c2cc(COc3ccccc3CC(=O)O)cc(N3CCC4(CCCOC4)CC3)c2)c1 [Compound 030, 2-(2-((3′-(aminomethyl)-5-(2-oxa-9-azaspiro[5.5]undecan-9-yl)-[1,1′-biphenyl]-3-yl)methoxy)phenyl)acetic acid]	8.40	7.66
NCc1cccc(-c2cc(COc3ccccc3CC(=O)O)cc(N3CCC4(CCO4)CC3)c2)c1 [Compound 012, 2-(2-((3′-(aminomethyl)-5-(1-oxa-7-azaspiro[3.5]nonan-7-yl)-[1,1′-biphenyl]-3-yl)methoxy)phenyl)acetic acid]	8.22	8.40
NCc1cccc(-c2cc(COc3ccccc3CC(=O)O)cc(N3CCC4(CCCC4)C3)c2)c1 [Compound 034]	9.00	7.96
NCc1cccc(-c2cc(COc3ccccc3CC(=O)O)cc(N3CCC4(CCC4)C3)c2)c1 [Compound 003, 2-(2-((3′-(aminomethyl)-5-(6-azaspiro[3.4]octan-6-yl)-[1,1′-biphenyl]-3-yl)methoxy)phenyl)acetic acid]	8.52	7.37
NCc1cccc(-c2cc(COc3ccccc3CC(=O)O)cc(N3CCCC4(CC4)C3)c2)c1 [Compound 004, 2-(2-((3′-(aminomethyl)-5-(5-azaspiro[2.5]octan-5-yl)-[1,1′-biphenyl]-3-yl)methoxy)phenyl)acetic acid]	7.72	7.44
CN1CC2(CCN(c3cc(COc4ccccc4CC(=O)O)cc(-c4cccc(CN)c4)c3)CC2)C1 [Compound 032, 2-(2-((3′-(aminomethyl)-5-(2-methyl-2,7-diazaspiro[3.5]nonan-7-yl)-[1,1′-biphenyl]-3-yl)methoxy)phenyl)acetic acid]	8.00	8.10
NCc1cccc(-c2cc(COc3ccccc3CC(=O)O)cc(N3CCC4(CC3)COC4)c2)c1 [Compound 011, 2-(2-((3′-(aminomethyl)-5-(2-oxa-7-azaspiro[3.5]nonan-7-yl)-[1,1′-biphenyl]-3-yl)methoxy)phenyl)acetic acid]	7.74	7.89
NCc1cccc(-c2cc(COc3ccccc3CC(=O)O)cc(N3CCC4(CC3)COC4)c2)c1F [Compound 024, 2-(2-((3′-(aminomethyl)-2′-fluoro-5-(2-oxa-7-azaspiro[3.5]nonan-7-yl)-[1,1′-biphenyl]-3-yl)methoxy)phenyl)acetic acid]	8.40	7.57
NCc1cc(F)cc(-c2cc(COc3ccccc3CC(=O)O)cc(N3CCC4(CC3)CC4)c2)c1 [Compound 008, 2-(2-((3′-(aminomethyl)-5′-fluoro-5-(6-azaspiro[2.5]octan-6-yl)-[1,1′-biphenyl]-3-yl)methoxy)phenyl)acetic acid]	7.74	6.71
NCc1cccc(-c2cc(COc3ccccc3CC(=O)O)cc(N3CCC4(CC3)CC(O)C4)c2)c1 [Compound 013, 2-(2-((3′-(aminomethyl)-5-(2-hydroxy-7-azaspiro[3.5]nonan-7-yl)-[1,1′-biphenyl]-3-yl)methoxy)phenyl)acetic acid]	7.96	7.55
NCc1cccc(-c2cc(COc3ccccc3CC(=O)O)cc(N3CCC4(CCNCC4)CC3)c2)c1 [Compound 033, 2-(2-((3′-(aminomethyl)-5-(3,9-diazaspiro[5.5]undecan-3-yl)-[1,1′-biphenyl]-3-yl)methoxy)phenyl)acetic acid]	8.70	8.52
